Assay results taken from article PMC12216184 (Nature Communications, 2025).
Non-standard residues stand in square brackets, D forms with d. No end group written: not given here.

What was measured:
[1] = target: N-terminal p53 region from amino acids 1 to 94 (p53^1-94) (human) (UniProt P04637); experiment: ITC
[2] = target: p53^TAD2 (residues 37-57), synthetic peptide (human) (UniProt P04637); experiment: ITC
[3] = target: p53^TAD2 phosphorylated at Ser46 (human) (UniProt P04637); experiment: ITC
Sequence of p53^TAD2 phosphorylated at Ser46 (human) (P04637 37-57): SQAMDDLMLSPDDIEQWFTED

[4] = target: p53^TAD2 phosphorylated at Ser46 and Thr55 (human) (UniProt P04637); experiment: ITC
[5] = target: p53^TAD2 phosphorylated at Thr55 (human) (UniProt P04637); experiment: ITC
p53^1–94 [6] = experiment: 1H,15N HSQC NMR titration of 15N-labeled p53^1–94 (CSP); assay type: binding, human; conditions: 15N-labeled p53^1–94, NMR titration
Method: (§1) All NMR spectra were recorded at 298 K either on a 700 MHz Bruker Avance III NMR spectrometer equipped with a TCI cryoprobe or on a 600 MHz Bruker Avance Neo NMR spectrometer equipped with a TXI 600S3 probehead at 298 K. All samples were in 50 mM NaH2PO4/Na2HPO4, pH 7.5 and 10 % D2O was added for the lock. Chemical shifts of the recombinant FOXO4-LRI were assigned using the following three-dimensional spectra: HNCACB, CBCA(CO)NH, (HN)N(CA)NNH, HN(NCA)NNH and (H)CC(CO)NH.
(§2) The CSPs were calculated according to the following equation:1 CSP=δH^2+ΔδN^2/7 where ΔδH and ΔδN indicate the chemical shift changes of the amide proton and nitrogen, respectively, using CcpNMR 2.5[49].

[7] = test system: endogenous p53 versus p53^ΔTAD2 in RPE-1 cells; experiment: Pull-down of endogenous p53 versus p53^ΔTAD2 from RPE-1 cells; assay type: binding, human; conditions: biotinylated bait (26 µM FOXO-FH or 125 µM biotinylated peptide CLO4201) on streptavidin agarose, 1 mg/mL RPE-1 lysate, 4 °C, Western blot, triplicates
From the text: Then, cells were selected by blasticidin for 10 days. Cells, which were expressing 3HA-GFP-miniturbo, p53-3HA-GFP-miniturbo-p53 and p53-Δtad2-3HA-GFP-miniturbo were sorted by FACS using GFP (Supplementary Fig. 17).
p53 mutant human TERT-immortalized retinal pigment epithelial 1 (RPE1) cells (RPE1 TP53^−/−; denoted RPE-1 p53KO) cells were kindly provided by Joanna Loizou (CeMM Research Center for Molecular Medicine of the Austrian Academy of Sciences, Vienna, Austria)[48]. […] For the preparation of cell lysates for pull down experiments, cells were grown to confluence and incubated with 10 µM Etoposide (Sigma) for 24 h. Cells were harvested in ice cold PBS pH 7.4 and lysed in lysis buffer (10 mM Tris pH 7.4, 1% IGEPAL®CA-630, 0.1% SDS, 140 mM NaCl, 2 mM MgCl2) supplemented with protease inhibitor cocktail, Benzonase (Merck Millipore) and RNase (molecular biology, Thermo Fisher). Samples were incubated on ice for 20 min, lysed by sonication and centrifuged for 15 min at 24,104 g and 4 °C. Pellets were discarded. Protein amount of lysates was determined by BCA protein assay. Lysates were then diluted to a protein concentration of 1 mg/mL in ice-cold dilution buffer (10 mM Tris pH 7.4, 1% IGEPAL®CA-630, 0.1% SDS, 140 mM NaCl, 2 mM EDTA) supplemented with protease inhibitor cocktail. […]

p53^1–94 [8] = experiment: NMR secondary chemical shifts and relaxation (15N{1H} NOE, R1, R2) of p53^1–94; assay type: binding, human; conditions: 300 µM p53^1–94 with 400 µM ligand, pH 7.5
Method: Data analysis von R1 and R1ρ measurements were performed using CcpNMR 2.5[49]. As fitting function, the following equation was used2 Mzt=M0^−Rit+C where Mz(t) is the longitudinal relaxation at the recovery delay time t, M0 is the equilibrium magnetization and Ri is either the longitudinal relaxation rate R1 or R1ρ. The transverse relaxation in the rotating frame R1ρ was then converted to R2 as described previously[50],[51] using the formula3 R1ρ=R1cos^2θ+R2sin^2θ in which θ = arctan(1/Ω) is the tilt angle between the static magnetic field and the effective field in the rotating frame.

p53^1-94 = target: T1, p53^1-94 (Homo sapiens, UniProt P04637); experiment: ITC, p53^1-94; assay type: binding
T1 construct: His6-protein A (TEV cleavage site) (cleaved yes); made in house; host or cells: Escherichia coli BL21-DE3 Star
T1 sequence (P04637 1-94): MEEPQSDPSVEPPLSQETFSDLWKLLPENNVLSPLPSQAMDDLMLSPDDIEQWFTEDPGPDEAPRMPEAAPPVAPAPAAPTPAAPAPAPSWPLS

p53^TAD2 = target: T2, p53^TAD2 (Homo sapiens, UniProt P04637); experiment: ITC, p53^TAD2; assay type: binding
T2 construct: purchased Peptide Specialty Laboratories GmbH

p53^TAD2pS46 = target: T3, p53^TAD2pS46 (Homo sapiens, UniProt P04637); experiment: ITC, p53^TAD2pS46; assay type: binding
T3 construct: purchased Peptide Specialty Laboratories GmbH

p53^TAD2pT55 = target: T4, p53^TAD2pT55 (Homo sapiens, UniProt P04637); experiment: ITC, p53^TAD2pT55; assay type: binding
T4 construct: purchased Peptide Specialty Laboratories GmbH

p53^TAD2pS46T55 = target: T5, p53^TAD2pS46T55 (Homo sapiens, UniProt P04637); experiment: ITC, p53^TAD2pS46T55; assay type: binding
T5 construct: purchased Peptide Specialty Laboratories GmbH

FOXO4^CR3 = experiment: 1H,15N HSQC NMR titration of 15N-labeled FOXO4^CR3 (CSP); assay type: binding, human; conditions: 15N-labeled FOXO4^CR3, NMR titration with p53^DBD
Method: as §1, §2

FOXO4^FH = experiment: 1H,15N HSQC NMR titration of 15N-labeled FOXO4^FH (CSP); assay type: binding, human; conditions: one equivalent of phosphopeptide versus p53^TAD2, 15N-labeled FOXO4^FH
Method: as §1, §2

Sequence of N-terminal p53 region from amino acids 1 to 94 (p53^1-94) (human) (P04637 1-94): as above

With “FOXO4-DRI (D-retro-inverso cell-penetrating peptide derived from the FOXO4 FH domain, fused to HIV-TAT)” the dH [1] was 5.9 kcal/mol, the stoichiometry N [1] was 0.9 and the dH [2] was 0.2 kcal/mol. For the same substance, the stoichiometry N [2] was 0.9, the dH [3] was -1.8 kcal/mol and the stoichiometry N [3] was 0.71. It also gave a dH [4] of -4.5 kcal/mol, a stoichiometry N [4] of 1.11 and a dH [5] of -4.7 kcal/mol. It also gave a stoichiometry N [5] of 0.74.

With “FOXO4^FH: FOXO4 forkhead domain fragment, amino acids 86–208” the “most affected residues of p53 (CSP)” value (p53^1–94 [6]) was “region from amino acids 45 to 57”, the “pull-down of endogenous p53 versus p53^ΔTAD2” value [7] was “higher amounts of endogenous p53 versus p53^ΔTAD2” and the “15N{1H} NOE change” value (p53^1–94 [8]) was “increased substantially in the presence of FOXO4^FH”. For the same substance, the “R1 relaxation rate change” value (p53^1–94 [8]) was “highly similar”.

“[dL][dT][dL][dR][dK][dE][dP][dA][dS][dE][dI][dA][dQ][dS][dI][dL][dE][dA][dY][dS][dQ][dN]G[dW][dA][dN][dR][dR][dS]GG[dK][dR][dP][dP][dP][dR][dR][dR][dQ][dR][dR][dK][dK][dR]G [FOXO4-DRI]” showed a Kd (p53^1-94) of 0.4 ± 0.3 µM, a Kd (p53^TAD2) of 18.5 ± 3.6 µM and a Kd (p53^TAD2pS46) of 10.5 ± 1.5 µM. It also gave a Kd (p53^TAD2pT55) of 5.8 ± 1.2 µM and a Kd (p53^TAD2pS46T55) of 4.9 ± 0.3 µM.

With “p53^DBD: human p53 DNA-binding domain fragment, amino acids 94–312” the “most affected residues of FOXO4^CR3 (CSP)” value (FOXO4^CR3) was “between FOXO4 amino acids 473 and 491”.

“p53^TAD2pS46: p53^TAD2 peptide phosphorylated at Ser46” was tested, and the “effect of phosphorylation on CSPs of FOXO4^FH” value (FOXO4^FH) was “stronger CSPs”.

In the case of “p53^TAD2pT55: p53^TAD2 peptide phosphorylated at Thr55”, the “effect of phosphorylation on CSPs of FOXO4^FH” value (FOXO4^FH) is reported as “stronger CSPs”.
